Results: PubChem BioAssay (NCI)
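Grown in 96-well plates, cells were treated for 48 hours with each compound at five concentrations. Insufficient inhibition: endpoint recorded as highest concentration tested. At the GI50, growth is halved. TGI denotes the concentration required for complete inhibition of growth.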

Experiments:
Assay in all cases: NCI tumour cell line growth inhibition, 48 h
[1] = tested on: SF-268 CNS
[2] = tested on: NCI-H23 lung
[3] = tested on: SN12C renal
[4] = tested on: SF-539 CNS
[5] = tested on: NCI-H522 lung
[6] = tested on: NCI-H460 lung
[7] = tested on: HCT-116 colon
[8] = tested on: OVCAR-4 ovarian
[9] = tested on: SNB-75 CNS
[10] = tested on: HOP-62 NSCLC
[11] = tested on: HCC-2998 colon
[12] = tested on: UO-31 renal
[13] = tested on: EKVX NSCLC
[14] = tested on: HCT-15 colon
[15] = tested on: RPMI-8226 leukemia
[16] = tested on: MOLT-4 leukemia
[17] = tested on: P388 leukemia
[18] = tested on: DMS 114 small cell lung
[19] = tested on: CAKI-1 renal
[20] = tested on: MCF7 breast
[21] = tested on: RXF 393 renal
[22] = tested on: A498 renal
[23] = tested on: HOP-18 NSCLC
[24] = tested on: A549 NSCLC
[25] = tested on: KM12 colon
[26] = tested on: M19-MEL melanoma
[27] = tested on: MALME-3M melanoma
[28] = tested on: UACC-62 melanoma
[29] = tested on: SK-MEL-2 melanoma
[30] = tested on: HOP-92 NSCLC
[31] = tested on: SNB-19 CNS
[32] = tested on: HL-60(TB) leukemia
[33] = tested on: OVCAR-8 ovarian
[34] = tested on: DLD-1 colon
[35] = tested on: HT29 colon
[36] = tested on: SK-MEL-28 melanoma
[37] = tested on: IGROV1 ovarian
[38] = tested on: SK-MEL-5 melanoma
[39] = tested on: SNB-78 CNS
[40] = tested on: K-562 leukemia
[41] = tested on: CCRF-CEM leukemia
[42] = tested on: UACC-257 melanoma
[43] = tested on: LOX IMVI melanoma
[44] = tested on: P388/ADR leukemia
[45] = tested on: SK-OV-3 ovarian
[46] = tested on: COLO 205 colon
[47] = tested on: NCI/ADR-RES ovarian
[48] = tested on: NCI-H226 lung
[49] = tested on: DMS 273 small cell lung
[50] = tested on: OVCAR-5 ovarian
[51] = tested on: SW-620 colon
[52] = tested on: SF-295 CNS
[53] = tested on: KM20L2 colon
[54] = tested on: SN12K1 renal
[55] = tested on: OVCAR-3 ovarian
[56] = tested on: U251 CNS
[57] = tested on: PC-3 prostate
[58] = tested on: LXFL 529 NSCLC
[59] = tested on: XF 498 CNS
[60] = tested on: M14 melanoma
[61] = tested on: MDA-MB-435
[62] = tested on: T-47D breast
[63] = tested on: ACHN renal
[64] = tested on: MDA-N
[65] = tested on: RXF-631 renal
[66] = tested on: SR leukemia
[67] = tested on: BT-549 breast
[68] = tested on: 786-0 renal
[69] = tested on: TK-10 renal
[70] = tested on: HS 578T breast
[71] = tested on: DU-145 prostate
[72] = tested on: MDA-MB-231 breast

## Cc1ncc(CO)c(C=NCCCCCCN=Cc2c(CO)cnc(C)c2[O-])c1[O-].[Cu+2]
[1]
  TGI: > 100 µM
[2]
  TGI: > 100 µM
[3]
  TGI: > 100 µM
[4]
  TGI: > 100 µM
[5]
  TGI: > 100 µM
[6]
  TGI: > 100 µM
[7]
  TGI: > 100 µM
[8]
  TGI: > 100 µM
[9]
  TGI: > 100 µM
[10]
  TGI: > 100 µM
[11]
  TGI: > 100 µM
[12]
  TGI: > 100 µM
[13]
  TGI: > 100 µM
[14]
  TGI: > 100 µM
[15]
  TGI: > 100 µM
[16]
  TGI: > 100 µM
[17]
  GI50: 18.9 µM
  TGI: 94.2 µM
[18]
  GI50: > 47.7 µM
  TGI: > 77.6 µM
[19]
  TGI: > 100 µM
[20]
  TGI: > 100 µM
[21]
  TGI: > 100 µM
[22]
  TGI: > 100 µM
[23]
  GI50: > 100 µM
  TGI: > 100 µM
[24]
  TGI: > 100 µM
[25]
  TGI: > 100 µM
[26]
  GI50: 28.6 µM
  TGI: > 31.6 µM
[27]
  TGI: > 100 µM
[28]
  TGI: > 100 µM
[29]
  TGI: > 100 µM
[30]
  TGI: > 87.9 µM
[31]
  TGI: > 100 µM
[32]
  TGI: > 100 µM
[33]
  TGI: > 100 µM
[34]
  GI50: > 82.9 µM
  TGI: > 100 µM
[35]
  TGI: > 100 µM
[36]
  TGI: > 100 µM
[37]
  TGI: > 100 µM
[38]
  TGI: > 79.1 µM
[39]
  GI50: 41.3 µM
  TGI: > 100 µM
[40]
  TGI: > 100 µM
[41]
  TGI: > 31.6 µM
[42]
  TGI: > 100 µM
[43]
  TGI: > 94.3 µM
[44]
  GI50: 25.7 µM
  TGI: > 100 µM
[45]
  TGI: > 100 µM
[46]
  TGI: > 100 µM
[47]
  TGI: > 100 µM
[48]
  TGI: > 100 µM
[49]
  GI50: > 66.9 µM
  TGI: > 100 µM
[50]
  TGI: > 100 µM
[51]
  TGI: > 100 µM
[52]
  TGI: > 100 µM
[53]
  GI50: > 83.9 µM
  TGI: > 100 µM
[54]
  GI50: > 100 µM
  TGI: > 100 µM
[55]
  TGI: > 100 µM
[56]
  TGI: > 70.9 µM

## Cc1ccccc1C1=C/C(=C(\SS/C(C(=O)c2ccc(OCC(=O)O)c(Cl)c2Cl)=C2\C=C(c3ccccc3C)SS2)C(=O)c2ccc(OCC(=O)O)c(Cl)c2Cl)SS1
[57]
  TGI: 27.4 µM
[1]
  TGI: 45.9 µM
[2]
  TGI: 55.7 µM
[3]
  TGI: 50.6 µM
[4]
  TGI: 44.9 µM
[5]
  TGI: 16.8 µM
[6]
  TGI: 60.2 µM
[7]
  TGI: 56.2 µM
[8]
  TGI: 64.3 µM
[9]
  TGI: 84 µM
[10]
  TGI: > 100 µM
[58]
  TGI: 16.5 µM
[11]
  TGI: > 100 µM
[12]
  TGI: 51.1 µM
[59]
  TGI: 42.6 µM
[13]
  TGI: > 96.5 µM
[14]
  TGI: 59.4 µM
[15]
  TGI: 51.2 µM
[60]
  TGI: 49.2 µM
[16]
  TGI: 47.6 µM
[18]
  TGI: 24.7 µM
[19]
  TGI: 72.9 µM
[20]
  TGI: > 90.7 µM
[21]
  TGI: 55.2 µM
[61]
  TGI: > 100 µM
[22]
  TGI: 92.6 µM
[62]
  TGI: 49 µM
[23]
  TGI: 23.3 µM
[24]
  TGI: > 94.2 µM
[25]
  TGI: 51 µM
[26]
  TGI: > 56.4 µM
[27]
  TGI: > 87.6 µM
[28]
  TGI: 43.5 µM
[29]
  TGI: 42.3 µM
[63]
  TGI: 65.4 µM
[30]
  TGI: 13.8 µM
[64]
  TGI: > 100 µM
[31]
  TGI: > 84.5 µM
[32]
  TGI: 7.65 µM
[33]
  TGI: 77.1 µM
[34]
  TGI: > 67.2 µM
[35]
  TGI: 83.7 µM
[36]
  TGI: 69 µM
[37]
  TGI: 38.5 µM
[38]
  TGI: 58.6 µM
[39]
  TGI: 51.4 µM
[40]
  TGI: 41.6 µM
[65]
  TGI: > 100 µM
[41]
  TGI: 32.2 µM
[42]
  TGI: 71.1 µM
[43]
  TGI: 21.1 µM
[66]
  TGI: 57.3 µM
[67]
  TGI: > 74.1 µM
[68]
  TGI: > 70 µM
[45]
  TGI: > 100 µM
[46]
  TGI: 47.5 µM
[47]
  TGI: > 100 µM
[69]
  TGI: > 85.1 µM
[48]
  TGI: 42.1 µM
[49]
  TGI: 36.7 µM
[50]
  TGI: > 100 µM
[70]
  TGI: 51.9 µM
[51]
  TGI: 67.7 µM
[71]
  TGI: > 100 µM
[52]
  TGI: 87 µM
[53]
  TGI: > 100 µM
[55]
  TGI: 50.6 µM
[72]
  TGI: 47.5 µM
[56]
  TGI: 35.9 µM
